Data from US9642833B2, “Vitamin C and vitamin K, and compositions thereof for treatment of osteolysis or prolongation of prosthetic implant” (IC-MEDTECH CORPORATION, priority 2009, dated 2017).

Tested on: HS68 fibroblasts
Experiment: MTT cytotoxicity against human dermal fibroblasts
Assay type: cell-based
Conditions: for CD50: vitamins alone; for VK3 CD50: in combination with Sodium L-Ascorbate

| Structure (SMILES) | VC CD50 (in combination with VK3, ratio of vitamin C to vitamin K3 100, incubation 1 day) | VC CD50 (in combination with VK3, ratio of vitamin C to vitamin K3 100, incubation 2 days) | VC CD50 (in combination with VK3, ratio of vitamin C to vitamin K3 100, incubation 3 days) | VC CD50 (in combination with VK3, ratio of vitamin C to vitamin K3 200, incubation 1 day) | VC CD50 (in combination with VK3, ratio of vitamin C to vitamin K3 200, incubation 2 days) | VC CD50 (in combination with VK3, ratio of vitamin C to vitamin K3 200, incubation 3 days) | CD50 (incubation 1 day) | CD50 (incubation 2 days) | CD50 (incubation 3 days) | VK3 CD50 (ratio of vitamin C to vitamin K3 100, incubation 1 day) | VK3 CD50 (ratio of vitamin C to vitamin K3 100, incubation 2 days) | VK3 CD50 (ratio of vitamin C to vitamin K3 100, incubation 3 days) | VK3 CD50 (ratio of vitamin C to vitamin K3 200, incubation 1 day) | VK3 CD50 (ratio of vitamin C to vitamin K3 200, incubation 2 days) | VK3 CD50 (ratio of vitamin C to vitamin K3 200, incubation 3 days) |
| --- | --- | --- | --- | --- | --- | --- | --- | --- | --- | --- | --- | --- | --- | --- | --- |
| O=C1O[C@H]([C@@H](O)CO)C([O-])=C1O.[Na+] [Sodium L-Ascorbate, sodium L-ascorbate] | 458 µM | 471 µM | 471 µM | 466 µM | 467 µM | 397 µM | 1468 µM | 1245 µM | 1185 µM |  |  |  |  |  |  |
| CC1=CC(=O)c2ccccc2C1=O [VK3, vitamin K3] |  |  |  |  |  |  | 18.7 µM | 19.0 µM | 18.7 µM | 4.7 µM | 4.7 µM | 4.7 µM | 2.3 µM | 2.3 µM | 2.0 µM |
